ChEMBL document CHEMBL3864157, “The synthesis and antistaphylococcal activity of dehydroabietic acid derivatives: Modifications at C-12” (2016)
In brackets after ≈: the same amount, converted by molar mass.

Assays:
Assay type in all cases: functional
Staphylococcus aureus [1] = test: Antibacterial activity against Staphylococcus aureus Newman
Staphylococcus aureus [2] = test: Antibacterial activity against gentamicin-resistant Staphylococcus aureus NRS-108
Staphylococcus aureus [3] = test: Antibacterial activity against linezolid-resistant Staphylococcus aureus NRS-271
Staphylococcus aureus [4] = test: Antibacterial activity against oxacillin/tetracycline-resistant Staphylococcus aureus NRS-100
Staphylococcus aureus [5] = test: Antibacterial activity against erythromycin-resistant Staphylococcus aureus NRS-70
Staphylococcus aureus [6] = test: Antibacterial activity against aminoglycosides/tetracycline-resistant Staphylococcus aureus NRS-1

C=CCON=C(c1cc2c(cc1C(C)C)CC[C@H]1[C@](C)(C(=O)O)CCC[C@]21C)C(C)C
MIC (Staphylococcus aureus [1]): 10 to 12.5 µg/mL (≈ 23.5 to 29.4 µM)

C#CCON=C(c1ccc(Cl)cc1Cl)c1cc2c(cc1C(C)C)CC[C@H]1[C@](C)(C(=O)O)CCC[C@]21C
MIC (Staphylococcus aureus [2]): 12.5 µg/mL (≈ 23.7 µM) | MIC (Staphylococcus aureus [3]): 12.5 to 25 µg/mL (≈ 23.7 to 47.5 µM) | MIC (Staphylococcus aureus [4]): 12.5 to 25 µg/mL (≈ 23.7 to 47.5 µM) | MIC (Staphylococcus aureus [1]): 1.56 to 3.13 µg/mL (≈ 2.96 to 5.94 µM) | MIC (Staphylococcus aureus [5]): 1.56 to 3.13 µg/mL (≈ 2.96 to 5.94 µM) | MIC (Staphylococcus aureus [6]): > 25 µg/mL

C#CCON=C(c1ccc(C(F)(F)F)cc1)c1cc2c(cc1C(C)C)CC[C@H]1[C@](C)(C(=O)O)CCC[C@]21C
MIC (Staphylococcus aureus [1]): > 50 µg/mL

CO/N=C(/c1cc2c(cc1C(C)C)CC[C@H]1[C@](C)(C(=O)O)CCC[C@]21C)C(C)C
MIC (Staphylococcus aureus [1]): 30 to 40 µg/mL (≈ 75.1 to 100 µM)

C#CCON=C(c1cccs1)c1cc2c(cc1C(C)C)CC[C@H]1[C@](C)(C(=O)O)CCC[C@]21C
MIC (Staphylococcus aureus [1]): 1.56 to 3.13 µg/mL (≈ 3.36 to 6.75 µM)

C=CCON=C(c1cc2c(cc1C(C)C)CC[C@H]1[C@](C)(C(=O)O)CCC[C@]21C)c1ccccc1C(F)(F)F
MIC (Staphylococcus aureus [2]): 6.25 to 12.5 µg/mL (≈ 11.8 to 23.7 µM) | MIC (Staphylococcus aureus [3]): > 50 µg/mL | MIC (Staphylococcus aureus [4]): 6.25 to 12.5 µg/mL (≈ 11.8 to 23.7 µM) | MIC (Staphylococcus aureus [1]): 0.78 to 1.56 µg/mL (≈ 1.48 to 2.96 µM) | MIC (Staphylococcus aureus [5]): 1.56 to 3.13 µg/mL (≈ 2.96 to 5.93 µM) | MIC (Staphylococcus aureus [6]): 12.5 to 25 µg/mL (≈ 23.7 to 47.4 µM)

CC(C)c1ccc2c(c1)CC[C@H]1[C@](C)(C(=O)O)CCC[C@]21C [DEHYDROABIETIC ACID]
MIC (Staphylococcus aureus [2]): 12.5 to 25 µg/mL (≈ 41.6 to 83.2 µM) | MIC (Staphylococcus aureus [3]): 12.5 to 25 µg/mL (≈ 41.6 to 83.2 µM) | MIC (Staphylococcus aureus [4]): 12.5 to 25 µg/mL (≈ 41.6 to 83.2 µM) | MIC (Staphylococcus aureus [1]): 12.5 to 20 µg/mL (≈ 41.6 to 66.6 µM) | MIC (Staphylococcus aureus [5]): 12.5 to 25 µg/mL (≈ 41.6 to 83.2 µM) | MIC (Staphylococcus aureus [6]): 12.5 to 25 µg/mL (≈ 41.6 to 83.2 µM)

C=CCO/N=C(\C)c1cc2c(cc1C(C)C)CC[C@H]1[C@](C)(C(=O)O)CCC[C@]21C
MIC (Staphylococcus aureus [1]): 30 to 40 µg/mL (≈ 75.5 to 101 µM)

C#CCON=C(c1cc2c(cc1C(C)C)CC[C@H]1[C@](C)(C(=O)O)CCC[C@]21C)c1ccccc1C(F)(F)F
MIC (Staphylococcus aureus [2]): > 25 µg/mL | MIC (Staphylococcus aureus [3]): > 25 µg/mL | MIC (Staphylococcus aureus [4]): > 25 µg/mL | MIC (Staphylococcus aureus [1]): 1.56 to 3.13 µg/mL (≈ 2.97 to 5.95 µM) | MIC (Staphylococcus aureus [5]): > 25 µg/mL | MIC (Staphylococcus aureus [6]): > 25 µg/mL

CCCC(=NO)c1cc2c(cc1C(C)C)CC[C@H]1[C@](C)(C(=O)O)CCC[C@]21C
MIC (Staphylococcus aureus [1]): 40 to 50 µg/mL (≈ 104 to 130 µM)

CON=C(c1ccccc1)c1cc2c(cc1C(C)C)CC[C@H]1[C@](C)(C(=O)O)CCC[C@]21C
MIC (Staphylococcus aureus [1]): 5 µg/mL (≈ 11.5 µM)

CC(C)c1cc2c(cc1C(=NOCc1ccccc1)c1ccccc1)[C@@]1(C)CCC[C@@](C)(C(=O)O)[C@@H]1CC2
MIC (Staphylococcus aureus [1]): > 50 µg/mL

C=CCON=C(CCC)c1cc2c(cc1C(C)C)CC[C@H]1[C@](C)(C(=O)O)CCC[C@]21C
MIC (Staphylococcus aureus [1]): 10 to 12.5 µg/mL (≈ 23.5 to 29.4 µM)

CON=C(c1ccc(Cl)cc1Cl)c1cc2c(cc1C(C)C)CC[C@H]1[C@](C)(C(=O)O)CCC[C@]21C
MIC (Staphylococcus aureus [2]): > 25 µg/mL | MIC (Staphylococcus aureus [3]): > 25 µg/mL | MIC (Staphylococcus aureus [4]): > 25 µg/mL | MIC (Staphylococcus aureus [1]): 1.56 to 3.13 µg/mL (≈ 3.1 to 6.23 µM) | MIC (Staphylococcus aureus [5]): 1.56 to 3.13 µg/mL (≈ 3.1 to 6.23 µM) | MIC (Staphylococcus aureus [6]): > 25 µg/mL

C/C(=N\OCc1ccccc1)c1cc2c(cc1C(C)C)CC[C@H]1[C@](C)(C(=O)O)CCC[C@]21C
MIC (Staphylococcus aureus [1]): > 50 µg/mL

CC(C)c1cc2c(cc1C(=NO)c1cccs1)[C@@]1(C)CCC[C@@](C)(C(=O)O)[C@@H]1CC2
MIC (Staphylococcus aureus [1]): 6.25 to 12.5 µg/mL (≈ 14.7 to 29.4 µM)

CC(C)c1cc2c(cc1C(=NO)c1ccc(Cl)cc1Cl)[C@@]1(C)CCC[C@@](C)(C(=O)O)[C@@H]1CC2
MIC (Staphylococcus aureus [2]): 1.56 to 3.13 µg/mL (≈ 3.19 to 6.41 µM) | MIC (Staphylococcus aureus [3]): 1.56 to 3.13 µg/mL (≈ 3.19 to 6.41 µM) | MIC (Staphylococcus aureus [4]): 3.13 µg/mL (≈ 6.41 µM) | MIC (Staphylococcus aureus [1]): 1.56 to 3.13 µg/mL (≈ 3.19 to 6.41 µM) | MIC (Staphylococcus aureus [5]): 1.56 to 3.13 µg/mL (≈ 3.19 to 6.41 µM) | MIC (Staphylococcus aureus [6]): 3.13 µg/mL (≈ 6.41 µM)

C=CCON=C(c1ccc(C(F)(F)F)cc1)c1cc2c(cc1C(C)C)CC[C@H]1[C@](C)(C(=O)O)CCC[C@]21C
MIC (Staphylococcus aureus [1]): > 50 µg/mL

C#CCON=C(c1cc2c(cc1C(C)C)CC[C@H]1[C@](C)(C(=O)O)CCC[C@]21C)C(C)C
MIC (Staphylococcus aureus [1]): 10 to 12.5 µg/mL (≈ 23.6 to 29.5 µM)

CCCC(=NOC)c1cc2c(cc1C(C)C)CC[C@H]1[C@](C)(C(=O)O)CCC[C@]21C
MIC (Staphylococcus aureus [1]): 40 to 50 µg/mL (≈ 100 to 125 µM)

C#CCON=C(c1cc2c(cc1C(C)C)CC[C@H]1[C@](C)(C(=O)O)CCC[C@]21C)C1CCCCC1
MIC (Staphylococcus aureus [1]): > 50 µg/mL

CC(C)c1cc2c(cc1C(=NO)c1ccccc1C(F)(F)F)[C@@]1(C)CCC[C@@](C)(C(=O)O)[C@@H]1CC2
MIC (Staphylococcus aureus [2]): 1.56 to 3.13 µg/mL (≈ 3.2 to 6.42 µM) | MIC (Staphylococcus aureus [3]): 1.56 to 3.13 µg/mL (≈ 3.2 to 6.42 µM) | MIC (Staphylococcus aureus [4]): 1.56 to 3.13 µg/mL (≈ 3.2 to 6.42 µM) | MIC (Staphylococcus aureus [1]): 1.56 to 3.13 µg/mL (≈ 3.2 to 6.42 µM) | MIC (Staphylococcus aureus [5]): 1.56 to 3.13 µg/mL (≈ 3.2 to 6.42 µM) | MIC (Staphylococcus aureus [6]): 1.56 to 3.13 µg/mL (≈ 3.2 to 6.42 µM)

C#CCON=C(c1cccc(C(F)(F)F)c1)c1cc2c(cc1C(C)C)CC[C@H]1[C@](C)(C(=O)O)CCC[C@]21C
MIC (Staphylococcus aureus [2]): > 25 µg/mL | MIC (Staphylococcus aureus [3]): > 25 µg/mL | MIC (Staphylococcus aureus [4]): > 25 µg/mL | MIC (Staphylococcus aureus [1]): 1.56 to 3.13 µg/mL (≈ 2.97 to 5.95 µM) | MIC (Staphylococcus aureus [5]): > 25 µg/mL | MIC (Staphylococcus aureus [6]): > 25 µg/mL

C#CCON=C(CCC)c1cc2c(cc1C(C)C)CC[C@H]1[C@](C)(C(=O)O)CCC[C@]21C
MIC (Staphylococcus aureus [1]): 15 to 20 µg/mL (≈ 35.4 to 47.2 µM)

CON=C(c1cc2c(cc1C(C)C)CC[C@H]1[C@](C)(C(=O)O)CCC[C@]21C)C1CCCCC1
MIC (Staphylococcus aureus [1]): > 50 µg/mL
